These results are taken from patent US20100029689A1, “PHOSPHODIESTERASE 4 INHIBITORS” (MEMORY PHARMACEUTICALS CORPORATION, priority 2008, published 2010).

Series [1] addresses T1, hPDE-4D6 (Homo sapiens, UniProt Q08499).
T1 construct: made in house; host or cells: Sf9 insect cells (baculovirus)
The experiment in a line: In vitro measurement of type 4 phosphodiesterase inhibition activity (hPDE-4D6, [3H]cAMP/alumina column assay). Type of series: biochemical. Conditions: recombinant hPDE-4D6 from Sf9 cell lysate, 3 uM cAMP, 12 min, room temperature; read-out: PDE4D6 IC50. Here is the method: Human PDE4 was obtained from baculovirus-infected Sf9 cells that expressed the recombinant enzyme. The cDNA encoding hPDE-4D6 was subcloned into a baculovirus vector.
Insect cells (Sf9) were infected with the baculovirus and cells were cultured until protein was expressed. The baculovirus-infected cells were lysed and the lysate was used as source of hPDE-4D6 enzyme. The enzyme was partially purified using a DEAE ion exchange chromatography. This procedure can be repeated using cDNA encoding other PDE-4 enzymes.
Type 4 phosphodiesterases convert cyclic adenosine monophosphate (cAMP) to 5′-adenosine monophosphate (5′-AMP). Nucleotidase converts 5′-AMP to adenosine. Therefore the combined activity of PDE4 and nucleotidase converts cAMP to adenosine. Adenosine is readily separated from cAMP by neutral alumina columns. Phosphodiesterase inhibitors block the conversion of cAMP to adenosine in this assay; consequently, PDE4 inhibitors cause a decrease in adenosine.
Cell lysates (40 ul) expressing hPDE-4D6 were combined with 50 ul of assay mix and 10 μl of inhibitors and incubated for 12 min at room temperature. Final concentrations of assay components were: 0.4 ug enzyme, 10 mM Tris-HCl (pH 7.5), 1 mM MgCl2, 3 uM cAMP, 0.002 U 5′-nucleotidase, and 3×10^4 cpm of [3H]cAMP. The reaction was stopped by adding 100 μl of boiling 5mN HCl. An aliquot of 75 μl of reaction mixture was transferred from each well to alumina columns (Multiplate; Millipore). Labeled adenosine was eluted into an OptiPlate by spinning at 2000 rpm for 2 min; 150 μl per well of scintillation fluid was added to the OptiPlate. The plate was sealed, shaken for about 30 min, and cpm of [^3H]adenosine was determined using a Wallac Triflux®.
All test compounds are dissolved in 100% DMSO and diluted into the assay such that the final concentration of DMSO is 0.1%.
A decrease in adenosine concentration is indicative of inhibition of PDE activity. […] Nonlinear regression software (Assay Explorer@) was used to estimate pIC50 values.

One may read the IC50 as the concentration needed to halve the response being measured. What is called melting point is the temperature, or range, at which the solid turns liquid.

T1 sequence (Q08499 1-518 isoform Q08499-8): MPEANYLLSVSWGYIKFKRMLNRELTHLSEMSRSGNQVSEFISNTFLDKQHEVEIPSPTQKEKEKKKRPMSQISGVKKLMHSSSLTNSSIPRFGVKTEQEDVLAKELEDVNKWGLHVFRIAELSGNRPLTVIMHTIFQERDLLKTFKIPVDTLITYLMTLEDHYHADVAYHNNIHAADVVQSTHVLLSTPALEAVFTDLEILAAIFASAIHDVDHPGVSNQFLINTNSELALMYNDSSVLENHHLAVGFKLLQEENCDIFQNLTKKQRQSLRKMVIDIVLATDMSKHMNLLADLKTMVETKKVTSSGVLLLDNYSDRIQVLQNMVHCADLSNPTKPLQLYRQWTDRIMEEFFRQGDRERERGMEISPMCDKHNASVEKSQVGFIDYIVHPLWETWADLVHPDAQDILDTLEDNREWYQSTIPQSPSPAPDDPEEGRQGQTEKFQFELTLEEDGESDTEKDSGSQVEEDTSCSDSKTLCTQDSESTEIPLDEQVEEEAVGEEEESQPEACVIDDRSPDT

Regarding `COc1ccc(N(Cc2cnco2)c2ccc(C(=O)O)cc2)cc1OC(F)(F)F` [Example 232], the IC50 in series [1] is 6.94 nM. The same measure, in the same setting: with `CCOc1cc(N(Cc2cocn2)c2ccc(C(=O)O)cc2)ccc1OC(F)F` [Example 190] the figure was 20 nM.

Consider `CCOc1cc(N(Cc2cnc(C)s2)c2ccc(C(=O)O)cc2)ccc1OC(F)F` [Example 225], for which the IC50 in series [1] is 4.38 nM. As for `COc1ccc(N(Cc2cnco2)c2ccc(C(=O)O)cc2)cc1OC1CC1` [Example 189], the IC50 in series [1] is 2.3 nM. Same read-out and setting: with `COc1cc(N(Cc2cncs2)c2cccc(C(=O)O)c2)ccc1OC(F)F` [Example 116] the figure was 7 nM; with `COc1ccc(N(Cc2cncs2)c2ccc(C(=O)O)cc2)cc1OC` [Example 138], 61 nM; with `CCOc1cc(N(Cc2cnco2)c2ccc(C(=O)O)cc2)ccc1OC(F)(F)F` [Example 217], 12 nM. Same read-out and setting: with `COc1ccc(N(Cc2cncs2)c2ccc(C(=O)O)cc2)cc1OC(C)C` [Example 131] the figure was 17.3 nM; with `O=C(O)c1ccc(N(Cc2cnco2)c2ccc(OC(F)F)c(OC(F)F)c2)cc1` [Example 141], 27 nM; with `CCOc1cc(N(Cc2cnns2)c2ccc(C(=O)O)cc2)ccc1OC(F)F` [Example 281], 0.16 nM. Still for that read-out and setting: with `O=C(O)Cc1ccc(N(Cc2cncnc2)c2ccc(OC(F)F)c(OC(F)F)c2)cc1` [Example 137] the figure was 139 nM. For the compound `COc1ccc(N(Cc2cncs2)c2ccc(C(=O)O)cc2)cc1OCC1CC1` [Example 72], in series [1], the IC50 amounted to 25.1 nM. On to `CCOc1cc(Nc2ccc(C(=O)O)cc2)ccc1OC(F)F` [Example 294], for which the IC50 in series [1] is 34.9 nM. Turning to `CCOc1cc(N(Cc2cncs2)c2ccc(C(=O)O)cc2)ccc1OC` [Example 130], the IC50 in series [1] worked out at 8.6 nM. On the same count and under the same terms, with `CCOc1cc(N(Cc2cccnc2)c2ccc(C(=O)O)cc2)ccc1OC(F)F` [Example 14] the figure was 2.54 nM; with `COc1ccc(N(Cc2cncnc2)c2cccc(C(=O)O)c2)cc1OC1CC1` [Example 218], 1.08 nM; with `O=C(O)c1ccc(N(Cc2cnco2)c2ccc(OC(F)F)c(OC3CCC3)c2)cc1` [Example 182], 3.8 nM. The same measure, in the same setting: the result for `O=C(O)c1ccc(Nc2ccc(OC(F)F)c(OC(F)F)c2)cc1` [Example 295] reads 108 nM; that for `O=C(O)c1ccc(N(Cc2cncs2)c2ccc(OC(F)F)c(OC(F)F)c2)cc1` [Example 59], 5.69 nM; that for `O=C(O)Cc1cccc(N(Cc2cncnc2)c2ccc(OC(F)F)c(OC(F)F)c2)c1` [Example 139], 53 nM. On the same count and under the same terms, with `O=C(O)c1ccc(N(Cc2cnccn2)c2ccc(OC(F)F)c(OC(F)F)c2)cc1` [Example 142] the figure was 289 nM. For `CC(C)Oc1cc(N(Cc2cnccn2)c2ccc(C(=O)O)cc2)ccc1OC(F)F` [Compound 155], the melting point is 132.3 to 135.7 °C. Same read-out and setting: with `CCCCOc1cc(N(Cc2cncs2)c2ccc(C(=O)O)cc2)ccc1OC(F)F` [Compound 129] the figure was 158.7 to 159.5 °C. On the same count and under the same terms, with `COc1ccc(N(Cc2cncs2)c2cccc(C(=O)O)c2)cc1OCC1CC1` [Compound 73] the figure was 137.4 to 139.4 °C; with `CCOc1cc(N(Cc2cccnc2)c2ccc(C(=O)O)cc2)ccc1OC(F)F` [Example 11, 4-[(4-Difluoromethoxy-3-ethoxy-phenyl)-pyridin-3-ylmethyl-amino]-benzoic acid], 177.6 to 178.9 °C; with `O=C(O)Cc1ccc(N(Cc2cccnc2)c2ccc(OC(F)F)c(OC(F)F)c2)cc1` [Compound 69], 107.4 to 108.1 °C.

The compound `CCCCOc1cc(N(Cc2cccnc2)c2ccc(C(=O)O)cc2)ccc1OC(F)F` [Compound 128] gave a melting point of 133.7 to 135.1 °C. In turn, `O=C(O)c1ccc(N(Cc2cncs2)c2ccc(OC(F)F)c(OC3CCCC3)c2)cc1` [Compound 104] gave a melting point of 67.3 to 69.7 °C. As for `O=C(O)c1ccc(N(Cc2cncnc2)c2ccc(OC(F)F)c(OC(F)F)c2)cc1` [Example 80], in series [1], the IC50 amounted to 6.17 nM. Still for that read-out and setting: with `CCOc1cc(N(Cc2cncnc2)c2ccc(C(=O)O)cc2)ccc1OC(F)F` [Example 143] the figure was 7.5 nM. `CCOc1cc(N(Cc2cnc(C)s2)c2ccc(C(=O)O)cc2)ccc1OC(F)F` [Compound 225] displayed a melting point of 73.1 to 74.1 °C. On to `COc1ccc(N(Cc2cncs2)c2cccc(C(=O)O)c2)cc1OC(F)F` [Compound 149], for which the melting point fell in the range of 86.4 to 88.3 °C. The same measure, in the same setting: with `O=C(O)c1ccc(N(Cc2cncs2)c2ccc(OC(F)F)c(OC(F)F)c2)cc1` [Compound 59] the figure was 144.3 to 145.7 °C; with `COc1ccc(N(Cc2cnco2)c2ccc(C(=O)O)cc2)cc1OC(C)C` [Compound 180], 60.3 to 61 °C. In the case of `COc1ccc(N(Cc2cccnn2)c2ccc(C(=O)O)cc2)cc1OC1CCCC1` [Example 47], in series [1], the half-inhibitory concentration (IC50) worked out at 128 nM. The same measure, in the same setting: the result for `COc1cc(N(Cc2cccnc2)c2ccc(C(=O)O)cc2)ccc1OC(F)F` [Example 124] reads 11.2 nM. Take `COc1ccc(N(Cc2cnc(N(C)C)nc2)c2ccc(C(=O)O)cc2)cc1OC1CCCC1` [Compound 51]: the melting point fell in the range of 95.9 to 99.5 °C.

The compound `O=C(O)c1ccc(N(Cc2cnccn2)c2ccc(OC(F)F)c(OC(F)F)c2)cc1` [Compound 142] registered a melting point of 158 to 161.1 °C. `CCOc1cc(N(Cc2cnco2)c2ccc(C(=O)O)cc2)ccc1OC(F)F` [Compound 144] had a melting point of 111.1 to 113 °C. Same read-out and setting: with `COc1ccc(N(Cc2cncs2)c2cccc(C(=O)O)c2)cc1O[C@@H]1CCOC1` [Compound 70] the figure was 60.3 to 61.9 °C.

For the compound `COc1ccc(N(Cc2cncs2)c2ccc(C(=O)O)cc2)cc1OC(F)F` [Compound 150], the melting point lay in the range of 86.4 to 88.3 °C.

As for `COc1ccc(N(Cc2cncs2)c2ccc(S(C)(=O)=O)cc2)cc1O[C@@H]1CCOC1` [Example 111], the IC50 in series [1] was determined as 29 nM. `COc1cc(N(Cc2cncnc2)c2ccc(C(=O)O)cc2)ccc1OCC(F)(F)F` [Compound 186] gave a melting point of 208.7 to 209.9 °C. `CCOc1cc(N(Cc2cncs2)c2ccc(C(=O)O)cc2)ccc1OC` [Compound 130] registered a melting point of 73.1 to 74.5 °C. In turn, `COc1cc(N(Cc2cccnc2)c2ccc(C(=O)O)cc2)ccc1OC(F)F` [Example 14, 4-[(4-Difluoromethoxy-3-methoxy-phenyl)-pyridin-3-ylmethyl-amino]-benzoic acid] gave a melting point of 183.7 to 184.9 °C.
